pIC50, pKi: −log10 of the molar value.
Tests used:
[1] = biological target: T1, human dopamine D3 receptors (Homo sapiens, UniProt P35462); test: Receptor binding study, dopamine D3 receptor ([125I]-iodosulpride displacement); conditions: membranes of HEK-293 cells, 0.1 nM [125I]-iodosulpride, 25° C., 60 minutes
T1 construct: expressed in transfected cells; host or cells: HEK-293
Description: (§1) The substance to be tested was either dissolved in methanol/Chremophor® (BASF SE) or in dimethyl sulfoxide and then diluted with water to the desired concentration.
(§2) Each assay mixture was run in triplicate. • The incubation buffer contained 50 mM tris, 120 mM NaCl, 5 mM KCl, 2 mM CaCl2, 2 mM MgCl2 and 0.1% bovine serum albumin, 10 μM quinolone and 0.1% ascorbic acid (prepared fresh daily). […] Each assay mixture was run in triplicate. • The incubation buffer contained 50 mM tris, 120 mM NaCl, 5 mM KCl, 2 mM CaCl2, 2 mM MgCl2 and 0.1% bovine serum albumin. The buffer was adjusted to pH 7.4 with HCl. c) Measurement and Analysis: • After having been incubated at 25° C. for 60 minutes, the assay mixtures were filtered through a Whatman GF/B glass fiber filter under vacuum using a cell collecting device. The filters were transferred to scintillation viols using a filter transfer system. After 4 ml of Ultima Gold® (Packard) have been added, the samples were shaken for one hour and the radioactivity was then counted in a Beta-Counter (Packard, Tricarb 2000 or 2200CA).

[2] = Determination of the microsomal half-life / microsomal clearance, rat; format: in vitro ADME; conditions: rat liver microsomes, 0.5 μM test substance, 0.25 mg microsomal protein/ml, NADPH, 37° C.
Description: (§3) The metabolic stability of the compounds of the invention was determined in the following assay.
(§4) The test substances were incubated in a concentration of 0.5 μM as follows:
(§5) 0.5 μM test substance are preincubated together with liver microsomes from different species (from rat, human or other species) (0.25 mg of microsomal protein/ml) in 0.05 M potassium phosphate buffer of pH 7.4 in microtiter plates at 37° C. for 5 min. The reaction is started by adding NADPH (1 mg/mL). After 0, 5, 10, 15, 20 and 30 min, 50 μl aliquots are removed, and the reaction is immediately stopped and cooled with the same volume of acetonitrile. The samples are frozen until analyzed. The remaining concentration of undegraded test substance is determined by MSMS. The half-life (T½) is determined from the gradient of the signal of test substance/unit time plot, it being possible to calculate the half-life of the test substance, assuming first order kinetics, from the decrease in the concentration of the compound with time. The microsomal clearance (mCl) is calculated from mCl=ln 2/T½/(content of microsomal protein in mg/ml)×1000 [ml/min/mg] (modified from references: Di, The Society for Biomoleculur Screening, 2003, 453-462; Obach, DMD, 1999 vol 27. N 11, 1350-1359).

[3] = Determination of the microsomal half-life / microsomal clearance, human; format: in vitro ADME; conditions: human liver microsomes, 0.5 μM test substance, 0.25 mg microsomal protein/ml, NADPH, 37° C.
Description: as §3, §4, §5

[4] = biological target: T2, hERG cardiac K+ channel (Homo sapiens, UniProt Q12809); test: Blocking the hERG channel ([3H]dofetilide displacement); format: binding; conditions: membrane homogenate from HEK 293 cells expressing hERG
T2 construct: expressed in transfected cells; host or cells: HEK-293
Description: The binding affinity of test drugs for the hERG cardiac K^+ channel was determined by their ability to displace tritiated dofetilide (a class III antiarrhythmic drug and potent hERG blocker) in membrane homogenates from HEK-293 cells heterogeneously expressing the hERG channel. The assay was performed as previously described G. J. Diaz et al., Journal of Pharmacological and Toxicological Methods, 50 (2004), 187-199). For this, drug dilutions were prepared from 10 mM DMSO stocks and the following were added to a 96-well polystyrene plate (Perkin-Elmer Optiplate): 20 μl of assay binding buffer (for total bounds), or 1 μM astemizole (for non-specific bounds), or test drug, 50 μl of [^3H]dofetilide (20 nM, ˜80 Ci/mmol specific activity), and 130 μl of membrane homogenate from HEK 293 cells stably transfected with hERG K^+ channels (final protein concentration of 30 μg per well). The plates were incubated at ambient temperature for 45 min, aspirated onto GF/B filter plates (Perkin-Elmer), and washed with 2 ml of cold wash buffer. After allowing the plates to dry, 50 μl of scintillant (Perkin-Elmer MicroScint 20) were added to each well and the radioactivity was counted in a Perkin-Elmer Topcount NXT scintillation counter. IC50 determinations were calculated from competition curves using 6 drug concentrations, half-log apart, starting at a high concentration of 100 μM (final assay DMSO concentration=1%) using a four-parameter logistic equation. The results are given as IC50 value.

[5] = biological target: T3, human dopamine D2L receptors (long isoform) (Homo sapiens, UniProt P14416); test: Receptor binding study, dopamine D2L receptor ([125I]iodospiperone displacement), selectivity vs D3; conditions: selectivity ratio, HEK-293 membranes
T3 construct: expressed in transfected cells; host or cells: HEK-293
Description: as §1, §2

T2 sequence (Q12809 whole entry): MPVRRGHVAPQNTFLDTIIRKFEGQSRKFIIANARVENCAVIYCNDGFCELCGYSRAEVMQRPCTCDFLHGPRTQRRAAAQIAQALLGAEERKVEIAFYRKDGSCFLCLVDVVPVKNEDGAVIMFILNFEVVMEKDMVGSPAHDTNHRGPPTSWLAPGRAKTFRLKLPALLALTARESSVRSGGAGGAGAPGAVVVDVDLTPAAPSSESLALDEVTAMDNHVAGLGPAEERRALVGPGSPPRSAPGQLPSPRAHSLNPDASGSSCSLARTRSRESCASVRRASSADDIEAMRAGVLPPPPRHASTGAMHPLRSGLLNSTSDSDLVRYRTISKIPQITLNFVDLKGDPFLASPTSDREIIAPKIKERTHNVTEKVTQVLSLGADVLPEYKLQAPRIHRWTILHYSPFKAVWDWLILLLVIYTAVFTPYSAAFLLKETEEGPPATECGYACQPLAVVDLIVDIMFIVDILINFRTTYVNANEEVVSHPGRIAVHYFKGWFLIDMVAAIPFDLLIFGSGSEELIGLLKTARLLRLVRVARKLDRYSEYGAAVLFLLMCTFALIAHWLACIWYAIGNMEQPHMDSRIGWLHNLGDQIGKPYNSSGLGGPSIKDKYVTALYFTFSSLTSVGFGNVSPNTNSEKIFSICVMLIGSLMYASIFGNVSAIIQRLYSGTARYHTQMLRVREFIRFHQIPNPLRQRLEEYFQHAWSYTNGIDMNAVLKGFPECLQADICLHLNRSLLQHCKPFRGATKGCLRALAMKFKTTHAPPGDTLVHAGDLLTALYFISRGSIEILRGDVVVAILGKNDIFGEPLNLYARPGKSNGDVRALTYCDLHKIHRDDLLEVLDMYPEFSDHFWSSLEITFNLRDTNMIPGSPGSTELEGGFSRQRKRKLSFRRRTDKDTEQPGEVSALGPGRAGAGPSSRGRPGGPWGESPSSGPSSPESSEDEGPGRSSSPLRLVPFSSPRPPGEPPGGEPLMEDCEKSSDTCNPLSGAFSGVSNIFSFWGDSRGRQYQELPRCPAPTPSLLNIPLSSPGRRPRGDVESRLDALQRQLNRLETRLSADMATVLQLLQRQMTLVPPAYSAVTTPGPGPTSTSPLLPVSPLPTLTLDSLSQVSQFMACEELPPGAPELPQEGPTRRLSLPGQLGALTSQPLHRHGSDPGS
T3 sequence (P14416 whole entry, canonical isoform): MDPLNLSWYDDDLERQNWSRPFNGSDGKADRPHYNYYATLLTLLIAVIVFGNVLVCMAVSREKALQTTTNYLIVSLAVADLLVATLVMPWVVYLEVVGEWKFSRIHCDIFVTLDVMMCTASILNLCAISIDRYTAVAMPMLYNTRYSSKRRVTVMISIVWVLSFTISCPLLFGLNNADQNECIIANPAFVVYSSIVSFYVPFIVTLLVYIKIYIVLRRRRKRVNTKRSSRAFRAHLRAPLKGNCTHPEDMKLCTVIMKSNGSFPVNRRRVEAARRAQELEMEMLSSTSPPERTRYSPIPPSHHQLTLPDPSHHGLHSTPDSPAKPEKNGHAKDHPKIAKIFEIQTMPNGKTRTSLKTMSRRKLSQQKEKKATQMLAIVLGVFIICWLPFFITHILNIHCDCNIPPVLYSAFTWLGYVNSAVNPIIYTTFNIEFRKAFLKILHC
T1 sequence (P35462 whole entry): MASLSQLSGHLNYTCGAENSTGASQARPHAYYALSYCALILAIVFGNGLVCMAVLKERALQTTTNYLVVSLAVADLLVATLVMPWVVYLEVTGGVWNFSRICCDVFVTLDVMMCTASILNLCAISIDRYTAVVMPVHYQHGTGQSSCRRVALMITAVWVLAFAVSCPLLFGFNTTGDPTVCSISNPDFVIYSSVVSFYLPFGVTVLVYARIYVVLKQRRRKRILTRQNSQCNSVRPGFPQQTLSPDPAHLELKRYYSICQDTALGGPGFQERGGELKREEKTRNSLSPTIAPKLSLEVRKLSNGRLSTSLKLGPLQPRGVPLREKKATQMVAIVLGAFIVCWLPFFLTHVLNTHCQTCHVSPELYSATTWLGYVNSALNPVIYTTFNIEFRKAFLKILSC

Row | pKi [1] | Rat mCl [2] | Human mCl [3] | D2/D3 (Ki (D2L)/Ki (D3)) [5] | Structure (SMILES) | pIC50 [4]
1 | > 8.00 | + (+: 20-120 μl min^−1 mg^−1) | + (+: 20-120 μl min^−1 mg^−1) | +++ (+++>50) | COCCc1cc(N2CCN(CC[C@H]3CC[C@@H](NC(C)=O)CC3)[C@@H](C)C2)nc(C(C)(C)C)n1 [Compound 7, cis-N-[4-(2-{(2S)-4-[2-tert-Butyl-6-(2-methoxy-ethyl)-pyrimidin-4-yl]-2-methyl-piperazin-1-yl}-ethyl)-cyclohexyl]-acetamide] | < 5.00
2 | > 8.00 | + (+: 20-120 μl min^−1 mg^−1) | + (+: 20-120 μl min^−1 mg^−1) | +++ (+++>50) | CC(=O)N[C@H]1CC[C@H](CCN2CCN(c3cc(CCO)nc(C(C)(C)C)n3)CC2)CC1 [Compound 13, trans-N-[4-(2-{4-[2-tert-Butyl-6-(2-hydroxy-ethyl)-pyrimidin-4-yl]-piperazin-1-yl}-ethyl)-cyclohexyl]-acetamide] | < 5.00
3 | > 8.00 | ∘ (∘: >120 μl min^−1 mg^−1) | + (+: 20-120 μl min^−1 mg^−1) | + (+>10) | CC(=O)N[C@H]1CC[C@H](CCN2CCN(c3cc(CCOC(F)(F)F)nc(C(C)(C)C)n3)CC2)CC1 [Compound 10b, trans N-[4-(2-{4-[2-tert-Butyl-6-(2-trifluoromethoxy-ethyl)-pyrimidin-4-yl]-piperazin-1-yl}-ethyl)-cyclohexyl]-acetamide] | –

The remaining lines, values behind:

Row | Structure (SMILES) | pKi [1] | Rat mCl [2] | Human mCl [3] | D2/D3 (Ki (D2L)/Ki (D3)) [5] | pIC50 [4]
4 | COCCc1cc(N2CCN(CC[C@H]3CC[C@H](NC(C)=O)CC3)CC2)nc(C(C)(C)C)n1 [Compound 1, trans-N-[4-(2-{4-[2-tert-Butyl-6-(2-methoxy-ethyl)-pyrimidin-4-yl]-piperazin-1-yl}-ethyl)-cyclohexyl]-acetamide] | > 8.00 | + (+: 20-120 μl min^−1 mg^−1) | + (+: 20-120 μl min^−1 mg^−1) | +++ (+++>50) | < 5.00
5 | COCCc1cc(N2CCN(CC[C@H]3CC[C@H](NC(C)=O)CC3)C[C@H]2C)nc(C(C)(C)C)n1 [Compound 6, trans-N-[4-(2-{(3R)-4-[2-tert-Butyl-6-(2-methoxy-ethyl)-pyrimidin-4-yl]-3-methyl-piperazin-1-yl}-ethyl)-cyclohexyl]-acetamide] | > 8.00 | ∘ (∘: >120 μl min^−1 mg^−1) | + (+: 20-120 μl min^−1 mg^−1) | +++ (+++>50) | < 5.00
6 | COCCc1cc(N2CCN(CC[C@H]3CC[C@H](NC(C)=O)CC3)[C@@H](C)C2)nc(C(C)(C)C)n1 [Compound 9, trans-N-[4-(2-{(2S)-4-[2-tert-Butyl-6-(2-methoxy-ethyl)-pyrimidin-4-yl]-2-methyl-piperazin-1-yl}-ethyl)-cyclohexyl]-acetamide] | > 8.00 | + (+: 20-120 μl min^−1 mg^−1) | + (+: 20-120 μl min^−1 mg^−1) | +++ (+++>50) | < 5.00
7 | COCc1cc(N2CCN(CC[C@H]3CC[C@H](NC(C)=O)CC3)CC2)nc(C(C)(C)C)n1 [Compound 2, trans-N-[4-(2-{4-[2-tert-butyl-6-(methoxymethyl)-pyrimidin-4-yl]-piperazin-1-yl}-ethyl)-cyclohexyl]-acetamide] | > 8.00 | + (+: 20-120 μl min^−1 mg^−1) | + (+: 20-120 μl min^−1 mg^−1) | +++ (+++>50) | < 5.00
8 | COCCc1cc(N2CCN(CC[C@H]3CC[C@H](NC=O)CC3)CC2)nc(C(C)(C)C)n1 [Compound 11, trans-N-[4-(2-{4-[2-tert-Butyl-6-(2-methoxy-ethyl)-pyrimidin-4-yl]-piperazin-1-yl}-ethyl)-cyclohexyl]-formamide] | > 8.00 | + (+: 20-120 μl min^−1 mg^−1) | + (+: 20-120 μl min^−1 mg^−1) | +++ (+++>50) | < 5.00
